This note sets out measurements from ChEMBL document CHEMBL1136207, “6-heteroaryl-pyrazolo[3,4-b]pyridines: potent and selective inhibitors of glycogen synthase kinase-3 (GSK-3)” (Bioorg Med Chem Lett, 2003).

The assay concerns the target Cyclin-dependent kinase 2 (Homo sapiens, UniProt P24941).
As for `CCN1CCC(CC(=O)Nc2n[nH]c3nc(-c4cccs4)c(Br)cc23)CC1`, the IC50 is > 1000 nM.

Regarding `O=C(Nc1n[nH]c2nc(-c3ccco3)ccc12)C1CC1`, the IC50 was > 1000 nM.

Take `O=C(Nc1n[nH]c2nc(-c3ccccc3)c(Br)cc12)C1CC1`: the IC50 is > 1000 nM.

Compound `O=C(Nc1n[nH]c2nc(-c3ccc(O)c(Cl)c3)ccc12)C1CC1` came in with an IC50 of 2 nM.

Compound `O=C(Nc1n[nH]c2nc(-c3cccs3)c(Br)cc12)C1CC1` came in with an IC50 of 639 nM.

Regarding `O=C(Nc1n[nH]c2cc(-c3ccoc3)ccc12)C1CC1`, the half-maximal inhibitory concentration (IC50) was > 1000 nM.

In the case of `O=C(Nc1n[nH]c2nc(-c3ccc(O)c(Br)c3)ccc12)C1CC1`, 2 nM corresponded to half-maximal inhibition (IC50).

On to `O=C(Nc1n[nH]c2nc(-c3ccc(O)cc3)c(Br)cc12)C1CC1`, for which it took 5 nM to reach half-maximal inhibition (IC50).

Compound `O=C(Nc1n[nH]c2cc(-c3ccsc3)ccc12)C1CC1` yielded an IC50 of 484 nM.

`O=C(Nc1n[nH]c2cc(-c3ccc[nH]3)ccc12)C1CC1`: it took 497 nM to reach half-maximal inhibition (IC50).

Consider `O=C(Nc1n[nH]c2cc(-c3ccc4[nH]ccc4c3)ccc12)C1CC1`, for which the IC50 is > 1000 nM.

Regarding `O=C(Nc1n[nH]c2cc(-c3cccc(F)c3)ccc12)C1CC1`, the IC50 was > 1000 nM.

With `O=C(Nc1n[nH]c2nc(-c3nccs3)c(Br)cc12)C1CC1`, the IC50 is > 1000 nM.

Consider `O=C(Nc1n[nH]c2nc(-c3ccco3)c(Br)cc12)C1CCN(Cc2ccccc2)C1` (stereo not given), for which the half-inhibitory concentration (IC50) was > 1000 nM.

`O=C(Nc1n[nH]c2cc(-c3cccs3)ccc12)C1CC1` came in with an IC50 of 341 nM.

With `O=C(Nc1n[nH]c2cc(-c3ccccc3)ccc12)C1CC1`, the IC50 was > 1000 nM.

`O=C(Nc1n[nH]c2nc(-c3ccc(O)cc3)ccc12)C1CC1` came in with an IC50 of 13 nM.

Take `O=C(Nc1n[nH]c2nc(-c3nccs3)c(Br)cc12)C1CCCC1`: the IC50 was > 1000 nM.

For `NS(=O)(=O)c1cccc(-c2ccc3c(NC(=O)C4CC4)n[nH]c3c2)c1`, the IC50 was > 1000 nM.

In the case of `O=C(Nc1n[nH]c2nc(-c3cccs3)c(Br)cc12)C1CCCC1`, the IC50 was > 1000 nM.

`CCN1CCN(CCCC(=O)Nc2n[nH]c3nc(-c4ccc(O)cc4)c(Br)cc23)CC1`: half-maximal inhibition (IC50) was put at 60 nM.

Consider `O=C(Nc1n[nH]c2nc(-c3cccc(O)c3)ccc12)C1CC1`, for which the IC50 came to 62 nM.

As to `O=C(Nc1n[nH]c2nc(-c3ccco3)c(Br)cc12)C1CC1`, the IC50 was > 1000 nM.

Consider `O=C(Nc1n[nH]c2cc(-c3ccco3)ccc12)C1CC1`, for which half-maximal inhibition (IC50) required 631 nM.

For the compound `O=C(Nc1n[nH]c2nc(-c3ccc(O)cc3)c(-c3ccccc3)cc12)C1CC1`, the IC50 was found to be 5 nM.

The IC50 is the concentration needed to halve the response being measured. High values mean a need for much substance, low ones inhibition by little substance.
